Source: publication PMC3395780 (Journal of Medicinal Chemistry, 2012)
Read-outs that look alike come from different tables or passages of the source.

Assays:
[1] = tested on: Vero cells (Vero ATCC CCL-81); assay: Cytotoxicity against Vero cells; conditions: 72 h incubation
Mtb H37Rv [2] = assay: TB MIC – SRI, resazurin-based microplate assay; format: cell-based, Mycobacterium tuberculosis; conditions: lowest concentration inhibiting ≥90% growth
NRP Mtb H37Rv cells = assay: Low-oxygen recovery assay; format: cell-based, Mycobacterium tuberculosis; conditions: non-replicating Mtb, anaerobic 10 d + 28-h recovery; ~90% inhibition
Mtb H37Rv [3] = assay: TB MIC – ITR; format: cell-based, Mycobacterium tuberculosis; conditions: ITR laboratory
M. smegmatis = assay: Antimicrobial spectrum of activity; format: cell-based; conditions: relative to activity against Mtb; SI Table 1
M. abscessus = assay: Antimicrobial spectrum of activity; format: cell-based; conditions: SI Table 1
[4] = Plasma pharmacokinetics after oral administration to female mice; format: in vivo, mouse
[5] = tested on: L5178Y mouse lymphoma cells; assay: Mouse lymphoma cell tk+/−→tk−/− gene mutation; format: cell-based; conditions: for Mutation frequency response in MOLY assay: in the presence or absence of metabolic activation (S9), non-cytotoxic dose levels
[6] = tested on: Salmonella typhimurium strain TA100; assay: Ames assay, plate incorporation method; format: cell-based
[7] = tested on: Salmonella typhimurium strain TA98; assay: Ames assay, plate incorporation method; format: cell-based
[8] = tested on: L5178Y mouse lymphoma cells; conditions: no reference printed at b52; cited from earlier work
[9] = in the presence and absence of metabolic activation (10% rat-liver S9)

In the case of “3-((1-methoxybutan-2-yl)amino)benzo[e][1,2,4]triazine 1,4-dioxide [Compound 8i]”, the “Vero Tox CC50” value [1] is reported as >50 µg/mL, the “TB MIC – SRI” value (Mtb H37Rv [2]) is reported as 10.0 µg/mL and the “LORA MIC – ITR” value (NRP Mtb H37Rv cells) is reported as 4.9 µg/mL. For the same molecule, the “TB MIC – ITR” value (Mtb H37Rv [3]) was 6.6 µg/mL.

In the case of “7-chloro-3-((1-methoxybutan-2-yl)amino)benzo[e][1,2,4]triazine 1,4-dioxide [Compound 15bi]”, the “TB MIC – SRI” value (Mtb H37Rv [2]) is reported as 1.2 µg/mL.

In the case of “7-fluoro-3-((1-methoxybutan-2-yl)amino)benzo[e][1,2,4]triazine 1,4-dioxide [Compound 15ai]”, the “Vero Tox CC50” value [1] is reported as 6.3 µg/mL, the “TB MIC – SRI” value (Mtb H37Rv [2]) is reported as 5.0 µg/mL and the “LORA MIC – ITR” value (NRP Mtb H37Rv cells) is reported as 1.9 µg/mL. For the same molecule, the “TB MIC – ITR” value (Mtb H37Rv [3]) was 2.0 µg/mL.

For `CCNc1n[n+]([O-])c2ccccc2[n+]1[O-]` [Compound 8a, 3-(ethylamino)benzo[e][1,2,4]triazine 1,4-dioxide], the “Antimicrobial activity against M. smegmatis” value (M. smegmatis) was “weaker activity”, the “Antimicrobial activity against M. abscessus” value (M. abscessus) was “resistant” and the “Plasma drug concentration at the 24 hr time point” value ([4]; mouse, in vivo, po, 100 mg/kg) was “lower than the limit of quantitation”.

With `CCNc1n[n+]([O-])c2cc3c(cc2[n+]1[O-])CCC3` [Compound 15fa, 3-(ethylamino)-7,8-dihydro-6H-indeno[5,6-e][1,2,4]triazine 1,4-dioxide] the “Mutagenic potential, +S9, 4-Hr Exposure” value ([5]; dose 10 μg/mL) was “Positive”, the “Mutagenic potential, +S9, 24-Hr Exposure” value ([5]; dose 10 μg/mL) was “Positive” and the “Mutagenic potential, −S9, 4-Hr Exposure” value ([5]; dose 10 μg/mL) was “Positive”. For the same molecule, the “Mutagenic potential, +S9, 4-Hr Exposure” value ([5]; dose 25 μg/mL) was “Positive”, the “Mutagenic potential, +S9, 24-Hr Exposure” value ([5]; dose 25 μg/mL) was “Positive” and the “Mutagenic potential, −S9, 4-Hr Exposure” value ([5]; dose 25 μg/mL) was “Positive”. For the same molecule, the “Mutagenic potential, +S9, 4-Hr Exposure” value ([5]; dose 50 μg/mL) was “Positive”, the “Mutagenic potential, +S9, 24-Hr Exposure” value ([5]; dose 50 μg/mL) was “Positive” and the “Mutagenic potential, −S9, 4-Hr Exposure” value ([5]; dose 50 μg/mL) was “Positive”. For the same molecule, the “Mutagenic potential, +S9, 4-Hr Exposure” value ([5]; dose 100 μg/mL) was “Positive”, the “Mutagenic potential, +S9, 24-Hr Exposure” value ([5]; dose 100 μg/mL) was “Positive” and the “Mutagenic potential, −S9, 4-Hr Exposure” value ([5]; dose 100 μg/mL) was “Positive”. The “Mutation frequency response in MOLY assay” value [5] was “significant increase in mutation frequency”, the “Number of revertant colonies, strain TA100” value [6] was “dose-related increases in the number of revertant colonies” and the “Number of revertant colonies, strain TA98” value [7] was “dose-related increases in the number of revertant colonies”.

With `[O-][n+]1nc(N2CCCC2)[n+]([O-])c2cc3c(cc21)CCC3` [Compound 20q, 3-(pyrrolidin-1-yl)-7,8-dihydro-6H-indeno[5,6-e][1,2,4]triazine 1,4-dioxide] the “Mutagenic activity in MOLY assay” value ([5]; at concentrations up to 100 μg/mL) was “no mutagenic activity”, the “Mutagenic potential, +S9, 4-Hr Exposure” value ([5]; dose 10 μg/mL) was “Negative” and the “Mutagenic potential, −S9, 4-Hr Exposure” value ([5]; dose 10 μg/mL) was “Negative”. For the same molecule, the “Mutagenic potential, −S9, 24-Hr Exposure” value ([5]; dose 10 μg/mL) was “Negative”, the “Mutagenic potential, +S9, 4-Hr Exposure” value ([5]; dose 25 μg/mL) was “Negative ^a” and the “Mutagenic potential, +S9, 24-Hr Exposure” value ([5]; dose 25 μg/mL) was “Negative”. The “Mutagenic potential, −S9, 4-Hr Exposure” value ([5]; dose 25 μg/mL) was “Negative”, the “Mutagenic potential, −S9, 24-Hr Exposure” value ([5]; dose 25 μg/mL) was “Negative” and the “Mutagenic potential, +S9, 4-Hr Exposure” value ([5]; dose 50 μg/mL) was “Negative”. For the same molecule, the “Mutagenic potential, +S9, 24-Hr Exposure” value ([5]; dose 50 μg/mL) was “Negative”, the “Mutagenic potential, −S9, 4-Hr Exposure” value ([5]; dose 50 μg/mL) was “Negative” and the “Mutagenic potential, −S9, 24-Hr Exposure” value ([5]; dose 50 μg/mL) was “Negative”. The “Mutagenic potential, +S9, 4-Hr Exposure” value ([5]; dose 100 μg/mL) was “Negative”, the “Mutagenic potential, +S9, 24-Hr Exposure” value ([5]; dose 100 μg/mL) was “Negative” and the “Mutagenic potential, −S9, 4-Hr Exposure” value ([5]; dose 100 μg/mL) was “Negative”. For the same molecule, the “Mutagenic potential, −S9, 24-Hr Exposure” value ([5]; dose 100 μg/mL) was “Negative”, the “Mutation frequency response in MOLY assay” value [5] was “negative response” and the “Number of revertant colonies, strain TA100” value [6, 9] was “dose-related increases in the number of revertant colonies”. For the same molecule, the “Antimicrobial activity against M. smegmatis” value (M. smegmatis) was “weaker activity”, the “Number of revertant colonies, strain TA98” value [7, 9] was “dose-related increases in the number of revertant colonies” and the “Antimicrobial activity against M. abscessus” value (M. abscessus) was “resistant”. The “Plasma drug concentration at the 24 hr time point” value ([4]; female mice, 100 mg/kg po, n = 3 per time point) was “lower than the limit of quantitation”.

In the case of `Nc1n[n+]([O-])c2ccccc2[n+]1[O-]` [TPZ, tirapazamine], the “Mutagenicity in MOLY assay” value [8] is given as “mutagenic”.
